In patent US20140107062A1, “COMPOSITIONS AND METHODS FOR TREATING OR PREVENTING DISEASES OF BODY PASSAGEWAYS” (Aravasc Inc., priority 2007, published 2014):
≈ marks a conversion by molar mass, not a printed value. Where “and” joins values, the source holds several entries; their conditions need not be identical. Identical values can stand only once. Like-named read-outs stand apart in the source and are kept apart here.

Columns and labels:
[1] = Solubility of analytes and polymer in solvents, dissolution media and water; type: physicochemical
[2] = administered systemically; cited from earlier work
liver and lung cancer = conditions: preliminary reports, clinical trials; cited from earlier work
[3] = Drug distribution 28-day PK study in naïve mice implanted with ETDS; type: in vivo; conditions: for Distribution of drugs from the implants in vivo: subcutaneous ETDS implants in mice
Protocol: An in vivo 28-day PK and drug distribution studies was conducted to understand drug distribution and the release profile/duration of drug-released from the different ETDS.
Nine mice were subcutaneously implanted with the same ETDS as implanted in the efficacy study. […] […] Three animals were terminated at each of these time points. Drug distribution in the plasma and skin tissue was analyzed by LC-MS. The preclinical stents were explanted and assayed for residual drug.

[4] = Rat in situ intra-tracheal infusion of THX-polymer formulation; type: in vivo; conditions: 8 mg/kg
Protocol: A pilot study of in situ intra-tracheal infusion was performed to estimate tracheal and lung tissue levels after in situ intra-tracheal infusion of THX-polymer formulation.
Two rats (immediately after termination) were intra-tracheally infused over 30 mins with a THX-polymer formulation. The dose was 8 mg/kg and volume was 200 μl. After infusion these were wrapped for 2 hours in a warm heating pad. Tracheo-bronchial and lung tissue were harvested after wiping the lumen area of the tracheo-bronchial lumen with a tissue and spatula (to take off any adsorbed drug) at the end of 2 hours. Samples were frozen at −80 C until processed and analyzed by LC-MS. Sample extraction was conducted at AraVasc Inc. The processed samples were analyzed at Alta Analytical laboratories by LC-MS.
(§1) The equipment used was a SCIEX PE 3000.
(§2) The supernatant extract was subject to LCMS analysis.

in vivo = conditions: rat
From the text: The animals were anesthetized while dosing. […] Samples were frozen until processed for LC-MS analysis.
as §1, §2

[5] = Drug levels in tumor-bearing mice at efficacy study termination; type: in vivo; conditions: for Drug Exposure, Tumor Tissue / Drug Exposure, Plasma: efficacy study; for Drug Exposure, Tumor Tissue: day 28-47; for Drug Exposure, Plasma: day 28-47, n = 8; for Explanted ETDS (Residual - efficacy): n = 3, ETDS 125 ± 25 ug total drug (1:1)
Protocol: The fast release mini-ETDS ensured the highest dose delivery. Coated or uncoated fast release preclinical ETDS were implanted in contact with tumor (300 mm^3), 14 days after inoculation of human esophageal-gastric cancer line NUGC4-GFP into nude mice. Tumor growth inhibition was evaluated over 47 day period post-implantation (FIG. 24). […] The projected in vivo dose/day based on an assumption of constant release after the initial ‘burst-effect’, is about 0.45 mg/kg/day.
A drug-dye distribution study was conducted in naïve mice. Plasma, skin tissue at implant site and skin tissue at contralateral site was sampled at defined intervals ranging from 2 hours-28 days. Similarly, plasma and tumor tissue was sampled at efficacy study termination at either 28 or […] days post implantation.
Drug-dye exposure levels in each of these biological samples was quantitated by LC-MS to obtain correlations between efficacious levels of exposure and release profile in naïve mice.
The LCMS analysis was conducted using validated bioanalytical methods discussed below except for HCFU. […] Samples were processed and analyzed immediately. Values may be underestimated.

[6] = Stability of ICG and HCFU (pH, dissolution media, ETDS product); type: physicochemical
From the text: A suboptimal pH (4) for the dissomedia was chosen to preserve both and simultaneously quantitate them as they eluted.
A suboptimal but workable pH 4 was chosen to evaluate the release profile.

[7] = cited from earlier work
[8] = under physiological conditions and under acidic conditions (pH<4); cited from earlier work
[9] = DMF, organic solvent or mixture, read-out: Solubility
[10] = DMSO, organic solvent or mixture, read-out: Solubility
[11] = THF, organic solvent or mixture, read-out: Solubility
[12] = acetonitrile, organic solvent or mixture, read-out: Solubility
[13] = dissolution media, read-out: Solubility
[14] = Day 4, FR ETDS, individual mice
[15] = Day 4, fast release (FR) ETDS, individual mice
[16] = Day 7, FR ETDS, individual mice
[17] = Day 14, FR ETDS, individual mice
[18] = Day 28, FR ETDS, individual mice
[19] = mouse, plasma, subcutaneous, Day 28, FR ETDS, individual mice, read-out: Plasma Conc.
[20] = mouse, skin tissue at implantation site, subcutaneous, Day 14, FR ETDS, individual mice, read-out: Tissue Conc. site of implant
[21] = 200 μl, infused over 30 mins, harvested at 2 hours, individual rats
[22] = mouse, skin tissue at implantation site, subcutaneous, Day 28, FR ETDS, individual mice, read-out: Tissue Conc. site of implant

SMILES | solubility [1, 9] [mg/mL] | solubility [1, 10] [mg/mL] | solubility [1, 11] [mg/mL] | solubility [1, 12] [mg/mL] | solubility [1, 13] [mg/mL] | solubility ([1]; water, read-out: Solubility) [mg/mL] | pulmonary toxicities [2] | Tissue Conc. site of implant [3, 14] | Plasma Conc. [3, 15] | Plasma Conc. [3, 16] | Tissue Conc. site of implant [3, 16] | Plasma Conc. [3, 17] | Tissue Conc. site of implant [3, 17] | Plasma Conc. [3, 18] | Tissue Conc. site of implant [3, 18] | concentration at 28 day [3, 19] [ng/mL] | concentration at 14 day [3, 20] [ng/g] | Distribution of drugs from the implants in vivo [3] | Explanted ETDS (Residual - efficacy) [5] [µg] | concentration at 28 day [3, 22] [ng/g] | also measured
O=C1CCC(N2C(=O)c3ccccc3C2=O)C(=O)N1 (racemic) [THX, 2-(2,6-dioxo-3-piperidinyl)-1H-isoindole-1,3(2H)-dione] | 75.5 (≈ 292 mM) | 56 (≈ 217 mM) | 3.34 (≈ 12.9 mM) | 0.79 (≈ 3.06 mM) | 3.34 (≈ 12.9 mM) | 1.5 (≈ 5.81 mM) | No pulmonary toxicities | 387 ng/g and 338 ng/g and 6410 ng/g | 0.95 ng/mL and 3.26 ng/mL and 0.00 ng/mL | 7.27 ng/mL and 9.27 ng/mL | 22.5 ng/g and 66.5 ng/g and 18.4 ng/g | 2.26 ng/mL and 7.55 ng/mL | 15.9 ng/g and 16.8 ng/g | 13.7 ng/mL and 7.79 ng/mL | 20.2 ng/g and 34.0 ng/g and 15.8 ng/g | 9.03 | 30.9 |  |  |  | disease control rates (liver and lung cancer): 8%-57%; response rates (liver and lung cancer): 4%-10%; concentration at 7 day ([3]; mouse, plasma, subcutaneous, Day 7, FR ETDS, individual mice, read-out: Plasma Conc.): 5.42 ng/mL; Tissue Levels Lung [4, 21]: 0.75 μg/100 mg and 0.58 μg/100 mg; Tissue Levels Trachea [4, 21]: 211.21 μg/100 mg and 290.36 μg/100 mg; THX levels in tracheo-bronchial and lung tissue ([4]; in situ infusion (0.5 hr)): High levels; concentration at 2 h ([4]; rat, lung, other: in situ intra-tracheal infusion, 200 μl, infused over 30 mins, harvested at 2 hours, individual rats, read-out: Tissue Levels Lung): 5800 ng/g; concentration at 20 min (in vivo; 4 mg/Kg): 190 ng/mL; concentration at 40 min (in vivo; 4 mg/Kg): 440 ng/mL; THX levels in lung tissue (in vivo; 12 mg/kg): High levels; THX levels in plasma (in vivo; 12 mg/kg): low levels
CCCCCOC(=O)Nc1nc(=O)n([C@@H]2O[C@H](C)[C@@H](O)[C@H]2O)cc1F [CPX, Capecitabine] | > 50 | > 50 | > 50 | > 0.4 | > 10 | > 10 |  |  |  |  |  |  |  |  |  |  |  |  |  |  | 
O=c1[nH]cc(F)c(=O)[nH]1 [FLX, 5-fluorouracil] | 45.8 (≈ 352 mM) | 59 (≈ 454 mM) | 42.1 (≈ 324 mM) | 1.81 (≈ 13.9 mM) | 42.1 (≈ 324 mM) | > 20 |  |  |  |  |  |  |  |  |  |  |  | High levels |  |  | 
CCCCCCNC(=O)n1cc(F)c(=O)[nH]c1=O [HCFU, Carmofur] | > 50 | > 50 | > 50 | > 0.4 | 0.05 to 0.06 (≈ 0.194 to 0.233 mM) | 0.02 to 0.03 (≈ 0.0777 to 0.117 mM) |  |  |  |  |  |  |  |  |  |  |  |  | 2.1 |  | Drug Exposure, Tumor Tissue ([5]; HCFU): 54.1 ng/mL; Drug Exposure, Plasma ([5]; HCFU, tumor-bearing mice): 59 ng/mL and 58.97 ng/mL; Tumor tissue exposure at steady state, average ([5]; HCFU, termination day 28-47): 54 ng/gm; concentration at 28 day ([3]; mouse, plasma, subcutaneous, HCFU, naïve mice, day 28, n = 3, read-out: Drug Exposure, Plasma): 48.2 ng/mL; concentration at 28 day ([3]; mouse, subcutaneous tissue, subcutaneous, HCFU, naïve mice, day 28, n = 3, read-out: Drug Exposure, Subcutaneous Tissue): 43.3 ng/mL; Stability in the dissolution media ([6]; pH>3): unstable; Stability ([6]; pH>4): not stable; Stability ([6]; physiological pH): limited stability
CC1(C)C(/C=C/C=C/C=C/C=C2\N(CCCCS(=O)(=O)O)c3ccc4ccccc4c3C2(C)C)=[N+](CCCCS(=O)(=O)[O-])c2ccc3ccccc3c21 [ICG, Indocyanine green] |  |  |  |  |  |  |  | 15.3 ng/g and 32.4 ng/g and 20.9 ng/g | 2.39 ng/mL and 3.76 ng/mL | 3.23 ng/mL and 0 ng/mL and 2.26 ng/mL | 13.2 ng/g and 12.4 ng/g and 35.9 ng/g | 2.23 ng/mL and 0 ng/mL (2×) | 13.1 ng/g and 14 ng/g | 2.24 ng/mL and 2.26 ng/mL | 11.8 ng/g and 11.9 ng/g | 2.39 | 12.2 | remained confined to the site of implantation |  | 12.1 | in-vivo protein binding [7]: about 95%; half life t1/2 [8]: < 2 min; concentration at 4 day ([3]; mouse, plasma, subcutaneous, Day 4, fast release (FR) ETDS, individual mice, read-out: Plasma Conc.): 3.89 ng/mL; Stability ([6]; acidic pH<4): not stable; Stability in the dissolution media ([6]; pH<3): unstable
CC(=O)O[C@H]1C(=O)[C@@]2(C)[C@H]([C@H](OC(=O)c3ccccc3)[C@]3(O)C[C@H](OC(=O)[C@H](O)[C@@H](NC(=O)c4ccccc4)c4ccccc4)C(C)=C1C3(C)C)[C@]1(OC(C)=O)CO[C@@H]1C[C@@H]2O [PTX, Paclitaxel] | 154 (≈ 181 mM) | 27.2 (≈ 31.9 mM) |  | 44.3 (≈ 51.9 mM) | 0.05 to 0.06 (≈ 0.0586 to 0.0703 mM) | > 20 | No pulmonary toxicities | 18000 ng/g and 6270 ng/g and 6990 ng/g | BLOQ | BLOQ | 22000 ng/g and 10300 ng/g and 47000 ng/g | BLOQ | 16500 ng/g and 10400 ng/g and 21600 ng/g | BLOQ | 12800 ng/g and 10600 ng/g |  |  |  | 15.4 | 18900 | solubility ([1]; THF): 41.7 mg/mL (≈ 48.8 mM); Drug Exposure, Tumor Tissue ([5]; PTX): 9,668 ng/gm; Drug Exposure, Plasma ([5]; PTX, tumor-bearing mice): 1.53 ng/gm; Average levels detected in plasma ([5]; PTX, tumor-bearing mice): 1.5 ng/mL; Explanted ETDS Conc. (residual drug) ([3]; Day 14 explanted FR ETDS): 12.30 µg and 14.82 µg and 15.13 µg; Drug Exposure, Plasma ([3]; PTX, naïve mice, day 28, n = 3): BLOQ; concentration at 28 day ([3]; mouse, subcutaneous tissue, subcutaneous, PTX, naïve mice, day 28, n = 3, read-out: Drug Exposure, Subcutaneous Tissue): 12100 ng/g
